From ChEMBL document CHEMBL1201862, “PubChem BioAssay data set” (2004)
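Cultured in 96-well plates, cells were exposed to test compound for 48 hours across five concentrations. At the GI50, growth is halved.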 The source made the active and inactive calls. No stated cut-off is given here; in the data, active = GI50 up to about 1.1 µM and inactive = higher.

Key:
Assay in all cases: DTP human tumour cell line panel, 48 h
OVCAR-8 = tested on: OVCAR-8
DMS-114 = tested on: DMS-114
LOX IMVI = tested on: LOX IMVI
SNB-78 = tested on: SNB-78
SF-295 = tested on: SF-295
MOLT-4 = tested on: MOLT-4
XF498 = tested on: XF498
HOP-18 = tested on: HOP-18
OVCAR-5 = tested on: OVCAR-5
SF-539 = tested on: SF-539
NCI-H460 = tested on: NCI-H460
HCC 2998 = tested on: HCC 2998
EKVX = tested on: EKVX
IGROV-1 = tested on: IGROV-1
KM-20L2 = tested on: KM-20L2
SK-MEL-28 = tested on: SK-MEL-28
SR = tested on: SR
RXF 393 = tested on: RXF 393
HL-60 = tested on: HL-60
SNB-75 = tested on: SNB-75
SK-OV-3 = tested on: SK-OV-3
M19-MEL = tested on: M19-MEL
HT-29 = tested on: HT-29
HCT-116 = tested on: HCT-116
HOP-92 = tested on: HOP-92
786-0 = tested on: 786-0
UACC-257 = tested on: UACC-257
TK-10 = tested on: TK-10
HCT-15 = tested on: HCT-15
COLO 205 = tested on: COLO 205
LXFL 529 = tested on: LXFL 529
CAKI-1 = tested on: CAKI-1
KM12 = tested on: KM12
A549 = tested on: A549
DLD-1 = tested on: DLD-1
Malme-3M = tested on: Malme-3M
SW-620 = tested on: SW-620
DMS-273 = tested on: DMS-273
RXF 631 = tested on: RXF 631
NCI-H23 = tested on: NCI-H23
ACHN = tested on: ACHN
OVCAR-3 = tested on: OVCAR-3
CCRF-CEM = tested on: CCRF-CEM
K562 = tested on: K562
UO-31 = tested on: UO-31
HOP-62 = tested on: HOP-62
UACC-62 = tested on: UACC-62
SN12C = tested on: SN12C
OVCAR-4 = tested on: OVCAR-4
A498 = tested on: A498
SNB-19 = tested on: SNB-19
SK-MEL-5 = tested on: SK-MEL-5
SF-268 = tested on: SF-268
M14 = tested on: M14
U-251 = tested on: U-251
NCI-H226 = tested on: NCI-H226
SK-MEL-2 = tested on: SK-MEL-2
RPMI-8226 = tested on: RPMI-8226

CC1=C2[C@@H](c3ccccc3)C3C=CC2(C=C3C(F)(F)F)N(C(=O)NC2CCCCC2)C1=O (stereo partly specified) was tested, and the GI50 (OVCAR-8) was > 100 µM (inactive), the GI50 (DMS-114) was 35.1 µM (inactive) and the GI50 (LOX IMVI) was 44 µM (inactive). The GI50 (SNB-78) was 36.1 µM (inactive), the GI50 (SF-295) was > 100 µM (inactive) and the GI50 (MOLT-4) was 16.2 µM (inactive). The GI50 (XF498) was > 100 µM (inactive), the GI50 (HOP-18) was > 100 µM (inactive) and the GI50 (OVCAR-5) was > 100 µM (inactive). For the same compound, the GI50 (SF-539) was 52.4 µM (inactive), the GI50 (NCI-H460) was > 100 µM (inactive) and the GI50 (HCC 2998) was 38.9 µM (inactive). The GI50 (EKVX) was 69 µM (inactive), the GI50 (IGROV-1) was > 100 µM (inactive) and the GI50 (KM-20L2) was 93.1 µM (inactive). For the same compound, the GI50 (SK-MEL-28) was > 100 µM (inactive), the GI50 (SR) was 15.8 µM (inactive) and the GI50 (RXF 393) was > 100 µM (inactive). For the same compound, the GI50 (HL-60) was 14.8 µM (inactive), the GI50 (SNB-75) was > 100 µM (inactive) and the GI50 (SK-OV-3) was > 100 µM (inactive). For the same compound, the GI50 (M19-MEL) was 54.6 µM (inactive), the GI50 (HT-29) was 72.9 µM (inactive) and the GI50 (HCT-116) was 32.4 µM (inactive). For the same compound, the GI50 (HOP-92) was > 100 µM (inactive), the GI50 (786-0) was 78 µM (inactive) and the GI50 (UACC-257) was 36.2 µM (inactive). For the same compound, the GI50 (TK-10) was > 100 µM (inactive), the GI50 (HCT-15) was 81.3 µM and the GI50 (COLO 205) was > 100 µM (inactive). The GI50 (LXFL 529) was 36.1 µM (inactive), the GI50 (CAKI-1) was 51.8 µM (inactive) and the GI50 (KM12) was 72.6 µM (inactive). For the same compound, the GI50 (A549) was 67.5 µM (inactive), the GI50 (DLD-1) was > 100 µM (inactive) and the GI50 (Malme-3M) was > 100 µM (inactive). The GI50 (SW-620) was > 100 µM (inactive), the GI50 (DMS-273) was 80 µM (inactive) and the GI50 (RXF 631) was 39.7 µM (inactive). The GI50 (NCI-H23) was 59.8 µM (inactive), the GI50 (ACHN) was > 100 µM (inactive) and the GI50 (OVCAR-3) was > 100 µM (inactive). The GI50 (CCRF-CEM) was 25.1 µM (inactive), the GI50 (K562) was 36.6 µM (inactive) and the GI50 (UO-31) was 51.5 µM (inactive). For the same compound, the GI50 (HOP-62) was 68.1 µM (inactive), the GI50 (UACC-62) was > 100 µM (inactive) and the GI50 (SN12C) was > 100 µM (inactive). The GI50 (OVCAR-4) was > 100 µM (inactive), the GI50 (A498) was > 100 µM (inactive) and the GI50 (SNB-19) was > 100 µM (inactive). For the same compound, the GI50 (SK-MEL-5) was 43.5 µM (inactive), the GI50 (SF-268) was 91 µM (inactive) and the GI50 (M14) was 81.3 µM (inactive). The GI50 (U-251) was > 100 µM (inactive).
In the case of COc1ccc(C2(Cl)C(Cl)(C(F)(F)F)C2(Cl)C(F)(F)F)cc1 (stereo unspecified), the GI50 (OVCAR-8) is reported as 12.6 µM (inactive), the GI50 (DMS-114) is reported as 12.5 µM (inactive) and the GI50 (LOX IMVI) is reported as 6.68 µM (inactive). For the same compound, the GI50 (SNB-78) was 14.7 µM (inactive), the GI50 (SF-295) was 14.8 µM (inactive) and the GI50 (MOLT-4) was 2.62 µM (inactive). For the same compound, the GI50 (XF498) was 12.9 µM (inactive), the GI50 (HOP-18) was 15.3 µM (inactive) and the GI50 (OVCAR-5) was 14.1 µM (inactive). The GI50 (SF-539) was 15.2 µM (inactive), the GI50 (NCI-H460) was 15.9 µM (inactive) and the GI50 (HCC 2998) was 16.3 µM (inactive). For the same compound, the GI50 (EKVX) was 17.5 µM (inactive), the GI50 (IGROV-1) was 16.5 µM (inactive) and the GI50 (KM-20L2) was 15.6 µM (inactive). The GI50 (SK-MEL-28) was 15.6 µM (inactive), the GI50 (SR) was 10.2 µM (inactive) and the GI50 (RXF 393) was 12.1 µM (inactive). The GI50 (HL-60) was 8.38 µM (inactive), the GI50 (SNB-75) was 14.9 µM (inactive) and the GI50 (SK-OV-3) was 16.7 µM (inactive). For the same compound, the GI50 (M19-MEL) was 13.6 µM (inactive), the GI50 (HT-29) was 14.4 µM (inactive) and the GI50 (HCT-116) was 11.7 µM (inactive). For the same compound, the GI50 (HOP-92) was 13.9 µM (inactive), the GI50 (786-0) was 17.2 µM (inactive) and the GI50 (UACC-257) was 13.6 µM (inactive). The GI50 (TK-10) was 18.1 µM (inactive), the GI50 (HCT-15) was 14.2 µM and the GI50 (COLO 205) was 15.9 µM (inactive). For the same compound, the GI50 (LXFL 529) was 13.9 µM (inactive), the GI50 (CAKI-1) was 16 µM (inactive) and the GI50 (KM12) was 14 µM (inactive). For the same compound, the GI50 (NCI-H226) was 15.5 µM (inactive), the GI50 (A549) was 14.9 µM (inactive) and the GI50 (DLD-1) was 15.7 µM (inactive). For the same compound, the GI50 (SW-620) was 15 µM (inactive), the GI50 (SK-MEL-2) was 14.2 µM (inactive) and the GI50 (DMS-273) was 14.3 µM (inactive). The GI50 (RXF 631) was 15.2 µM (inactive), the GI50 (NCI-H23) was 14.7 µM (inactive) and the GI50 (RPMI-8226) was 9.64 µM (inactive). The GI50 (ACHN) was 16.8 µM (inactive), the GI50 (OVCAR-3) was 15.5 µM (inactive) and the GI50 (CCRF-CEM) was 3.78 µM (inactive). The GI50 (K562) was 20.5 µM (inactive), the GI50 (UO-31) was 16 µM (inactive) and the GI50 (HOP-62) was 18.4 µM (inactive). The GI50 (UACC-62) was 13.6 µM (inactive), the GI50 (SN12C) was 15.8 µM (inactive) and the GI50 (OVCAR-4) was 16.4 µM (inactive). For the same compound, the GI50 (SNB-19) was 15.7 µM (inactive), the GI50 (SK-MEL-5) was 10.4 µM (inactive) and the GI50 (SF-268) was 15.6 µM (inactive). For the same compound, the GI50 (M14) was 11.9 µM (inactive) and the GI50 (U-251) was 14.9 µM (inactive).
